Measured values taken from patent US5051419A, “Prevention or elimination of mycoplasma contamination of animal or plant cell cultures” (Dainippon Pharmaceutical Co., Ltd., priority 1988, dated 1991).
In brackets after ≈: the same amount, converted by molar mass. Like-named read-outs stand apart in the source and are kept apart here. Values belong to the compound of their own block, whether it stands above or below them.

Assays:
M. orale CH-19299 = assay: Anti-mycoplasmal activity (MIC, MMC), liquid dilution method; type: cell-based, Mycoplasma orale; conditions: Metamycoplasma orale
Protocol: (§1) The minimum growth inhibitory concentration (MIC, μg/ml) and minimum mycoplasmacidal concentration (MMC, μg/ml) of test chemicals were measured by the liquid dilution method. The method of measuring MIC in this example differs from that used in Test Example 1.
(§2) A 1,000 μg/ml aqueous solution of a test chemical was prepared, and diluted to 5 times with a preculture medium. The dilution (200 μg/ml) was serially diluted twofold with the same medium in a 8-well reservoir. Fifty microliters of each diluted solution was distributed in the wells of a microplate. A well to which no test chemical was added was used as a control.
(§3) A mycoplasma suspension for inoculation prepared as in Test Example 1 was pipetted in an amount of 50 microliters to each of the wells. The microplates were sealed by a plate seal, shaken by a micromixer, and cultivated at 37° C. for 5 days. In the control to which no test chemical was added, color change of the medium by the growth of mycoplasma was observed after two days from the start of the cultivation. At this time, 3 microliters of the liquid culture was inoculated in drug-free Chanock agar medium by using a Cathra-replicator. The liquid culture and the agar medium were further cultivated at 37° C. for 3 days (anaerobically in the case of M. orale, and aerobically in the case of A. laidlawii and M. arginini). MIC and MMC were determined from the results of observation on the 5th day. MIC was defined as the lowest concentration of the test chemical at which growth of mycoplasma in the drug-containing liquid medium was not noted, and MMC, as that in the drug-free agar medium.

M. salivarium PG20 = assay: Anti-mycoplasmal activity (MIC), agar-dilution method; type: cell-based, Mycoplasma salivarium; conditions: Metamycoplasma salivarium
Protocol: (§4) The minimum growth inhibitory concentrations (MIC; μg/ml) of the test chemicals were measured by the agar-dilution method.
(§5) (1) Preparation of a mycoplasma suspension for inoculation
(§6) A stored frozen suspension of mycoplasma (0.2 to 0.3 ml) was inoculated in 2 to 3 ml of a preculture medium to be described later. It was serially diluted tenfold until the dilution ratio reached 10,000 times. These diluted solutions were cultivated at 37° C. for 2 to 7 days. A culture having the highest dilution ratio was selected from those cultures in which a color change of the media was noted as a result of mycoplasma growth. It was diluted to 100 times with the preculture medium to prepare a mycoplasma suspension for inoculation.
(§7) The following preculture media were used.
(§8) For other mycoplasma species, Chanock liquid medium (pH 6.8) containing 0.2% arginine was used.
(§9) (2) Preparation of agar plates containing the test chemicals
(§10) A 1,000 μg/ml aqueous solution of each test chemical was prepared (a difficultly-soluble chemical was dissolved by adding an equimolar amount of sodium hydroxide; the same applies hereinafter). The solution was used as a base solution and its twofold serial dilutions were prepared. The diluted solutions were pipetted on plastic petri dishes each in an amount of 1 ml. The Chanock agar medium (for Mycoplasma hyorhinis, 0.5% mucin was further added) described at page 9 of the above cited "Procedures for Isolation and Identification of Human, Animal and Plant Mycoplasmas" was heated and kept at 55° C. and put in an amount of 9 ml in each of the petri dishes containing the test chemicals and fully mixed with the test chemicals to prepare agar plates containing the test chemicals.
(§11) The mycoplasma suspension for inoculation prepared by the procedure described in section (1) was inoculated in an amount of about 3 microliters on each of the chemical-containing agar plates by means of a Cathra-replicator (3 mm pin). The plates on which Mycoplasma pneumoniae, Mycoplasma arginini, and Acholeplasma laidlawii and Mycoplasma hyorhinis were inoculated were tightly packed in a plastic bag together with the plasic petri dishes including water-immersed absorbent cotton. Mycoplasma pneumoniae was aerobically cultivated at 37° C. under highly humid conditions for 7 days; and Mycoplasma arginini and Acholeplasma laidlawii, for 2 days. The other mycoplasma species were cultivated anaerobically for 2 days by using a GasPak anaerobic system (BBL). After the cultivation, growth of mycoplasma were observed under an OLYMPUS microscope (20-100 X). The lowest concentration of the test chemical at which no growth of mycoplasma was noted is defined as MIC.

M. arginini G230 = assay: as above; type: cell-based, Mycoplasma arginini; conditions: Mycoplasmopsis arginini
Protocol: as §4, §5, §6, §7, §8, §9, §10, §11

M. pnumoniae Mac = assay: as above; type: cell-based, Mycoplasma pneumoniae; conditions: Mycoplasma
Protocol: as §4, §5, §6, §7
(§12) For Mycoplasma pneumoniae and Acholeplasma laidlawii, Chanock liquid medium containing 0.5% glucose (pH 7.8) [Library of Bacteriology 2, "Procedures for Isolation and Identification of Human, Animal and Plant Mycoplasmas", edited by Japanese Society for Bacteriology, page 8 (1982), Saikon Publishing Co.] was used.
as §9, §10, §11

A. laidlawii PG-8 = assay: Anti-mycoplasmal activity (MIC, MMC), liquid dilution method; type: cell-based; conditions: Acholeplasma laidlawii
Protocol: as §1, §2, §3

M. arginini G-230 = assay: as above; type: cell-based, Mycoplasma arginini; conditions: Mycoplasmopsis arginini
Protocol: as §1, §2, §3

FL human-amnion cells = assay: Cytotoxicity on FL cells (cell proliferation inhibition); type: cell-based; conditions: Homo sapiens, 72 h, read-out: IC50 (50% cell proliferation inhibitory concentration)
Protocol: Whether test chemicals would inhibit growth of cells was examined.
A 1,000 μg/ml aqueous solution of each of the test chemicals was serially diluted twofold with Eagle's minimum essential medium.
FL human-amnion cells (2×10^4 cells) were suspended in 3.6 ml of 10% FBS-MEM medium, put in petri dishes (diameter 60 mm) for tissue culture, and cultivated at 37° C. in 5% CO2 humidified atmosphere for 48 hours. The test chemical solution prepared as above was added in an amount of 0.4 ml to each of the petri dishes in predetermined concentrations, and the cells were cultivated for 3 days. After the cultivation, the medium was removed, and the remainder was washed once with Dulbecco's phosphate buffer (pH 7.4). The cells were peeled off by adding 0.2 ml of a 2.5% trypsin-0.002% EDTA mixed solution (1:9) and properly diluted with 10% FBS-MEM medium. Then, the number of the cells was counted by an Erma hemocytometer.
The cell proliferation rate was calculated by following formula [formula]

A. laidlawii PG8 = assay: Anti-mycoplasmal activity (MIC), agar-dilution method; type: cell-based; conditions: Acholeplasma laidlawii
Protocol: as §4, §5, §6, §7, §12, §9, §10, §11

M. hyorhinis BST7 = assay: as above; type: cell-based, Mycoplasma hyorhinis; conditions: Mesomycoplasma hyorhinis
Protocol: as §4, §5, §6, §7
For Mycoplasma hyorhinis, a liquid medium (pH 7.8) for isolation of Mycoplasma hyorhinis [Journal of the Japan Veterinary Medical Association,32, 34-38 (1979)] was used.
as §9, §10, §11

M. orale CH19299 = assay: as above; type: cell-based, Mycoplasma orale; conditions: Metamycoplasma orale
Protocol: as §4, §5, §6, §7, §8, §9, §10, §11

mycoplasma = conditions: in words, background; cited from earlier work

SMILES: O=C(O)c1cn(C2CC2)c2cc(N3CCNCC3)c(F)cc2c1=O [Compound 2, ciprofloxacin]
MIC (M. orale CH-19299; CH19299): 1.56 µg/mL (≈ 4.71 µM)
MBC (M. orale CH-19299; CH19299, 120 h, read-out: MMC): 1.56 µg/mL (≈ 4.71 µM)
MIC (M. salivarium PG20; PG20): 3.13 µg/mL (≈ 9.45 µM)
MIC (M. arginini G230; G230): 0.78 µg/mL (≈ 2.35 µM)
MIC (M. pnumoniae Mac): 0.39 µg/mL (≈ 1.18 µM)
MIC (A. laidlawii PG-8; PG8): 0.39 µg/mL (≈ 1.18 µM)
MBC (A. laidlawii PG-8; PG8, 120 h, read-out: MMC): 0.39 µg/mL (≈ 1.18 µM)
MIC (M. arginini G-230; G230): 0.78 µg/mL (≈ 2.35 µM)
MBC (M. arginini G-230; G230, 120 h, read-out: MMC): 0.78 µg/mL (≈ 2.35 µM)
IC50 (FL human-amnion cells): 28 µg/mL (≈ 84.5 µM)
MIC (A. laidlawii PG8; PG8): 0.39 µg/mL (≈ 1.18 µM)
MIC (M. hyorhinis BST7; BST7): 0.78 µg/mL (≈ 2.35 µM)
MIC (M. orale CH19299; CH19299): 1.56 µg/mL (≈ 4.71 µM)

MIC (M. salivarium PG20; agar dilution, M. salivarium PG20, read-out: MIC): 6.25 µg/mL (≈ 17.3 µM)
MIC (M. arginini G230; agar dilution, M. arginini G230, read-out: MIC): 0.78 µg/mL (≈ 2.16 µM)
MIC (M. pnumoniae Mac; agar dilution, M. pnumoniae Mac, read-out: MIC): 0.78 µg/mL (≈ 2.16 µM)
MIC (A. laidlawii PG8; agar dilution, A. laidlawii PG8, read-out: MIC): 0.78 µg/mL (≈ 2.16 µM)
MIC (M. hyorhinis BST7; agar dilution, M. hyorhinis BST7, read-out: MIC): 3.13 µg/mL (≈ 8.66 µM)
MIC (M. orale CH19299; agar dilution, M. orale CH19299, read-out: MIC): 1.56 µg/mL (≈ 4.32 µM)
SMILES: CC1COc2c(N3CCN(C)CC3)c(F)cc3c(=O)c(C(=O)O)cn1c23 (stereo not drawn) [Compound 4]

SMILES: C=C[C@]1(C)C[C@@H](OC(=O)CSCCN(CC)CC)[C@]2(C)[C@H](C)CC[C@]3(CCC(=O)[C@H]32)[C@@H](C)[C@@H]1O [tiamulin]
minimum growth inhibitory concentration (MIC) for mycoplasma (mycoplasma): low
mode of action on mycoplasma (mycoplasma): only act bacteriostatically and not mycoplasmacidally
